Test results: publication PMC5218480 (PLoS ONE, 2017)

Test system: MV-4-11 cells
Assay: Gene expression microarray analysis (Affymetrix PrimeView) and GSEA
Type: cell-based, human
Set-up: RFU PODN (11730768_x_at) / Fold change /veh PODN (11730768_x_at) / RFU LINC00158 (11744669_a_at) / Fold change /veh LINC00158 (11744669_a_at) / RFU DUSP10 (11751237_a_at) / Fold change /veh DUSP10 (11751237_a_at) / RFU ID3 (11757404_x_at) / Fold change /veh ID3 (11757404_x_at) / RFU PLEKHG5 (11737974_s_at) / Fold change /veh PLEKHG5 (11737974_s_at) / RFU LRRC4B (11730491_at) / Fold change /veh LRRC4B (11730491_at) / RFU GIMAP4 (11747438_a_at) / Fold change /veh GIMAP4 (11747438_a_at) / RFU KRT8 (11758183_x_at) / Fold change /veh KRT8 (11758183_x_at) / RFU CNN1 (11734310_a_at) / Fold change /veh CNN1 (11734310_a_at) / RFU VPS37D (11726825_at) / Fold change /veh VPS37D (11726825_at) / RFU C10orf10 (11716522_x_at) / Fold change /veh C10orf10 (11716522_x_at) / RFU KIR2DL2 /// KIR2DL4 /// KIR2DL5A /// KIR2DL5B /// KIR2DS1 /// KIR2DS2 /// KIR2DS3 /// KIR2DS4 /// KIR3DL3 /// KIR3DL3 /// KIR3DS1 (11738374_at) / Fold change /veh KIR2DL2 /// KIR2DL4 /// KIR2DL5A /// KIR2DL5B /// KIR2DS1 /// KIR2DS2 /// KIR2DS3 /// KIR2DS4 /// KIR3DL3 /// KIR3DL3 /// KIR3DS1 (11738374_at) / RFU C1QL1 (11718748_at) / Fold change /veh C1QL1 (11718748_at) / RFU TMPRSS4 (11747572_a_at) / Fold change /veh TMPRSS4 (11747572_a_at) / RFU HAMP (11756126_x_at) / Fold change /veh HAMP (11756126_x_at) / RFU RNFT2 (11725882_a_at) / Fold change /veh RNFT2 (11725882_a_at) / RFU NR4A2 (11747474_a_at) / Fold change /veh NR4A2 (11747474_a_at) / RFU ABCC12 (11746883_a_at) / Fold change /veh ABCC12 (11746883_a_at) / RFU TMEM136 (11760407_x_at) / Fold change /veh TMEM136 (11760407_x_at) / RFU CLDN22 /// WWC2 (11732394_at) / Fold change /veh CLDN22 /// WWC2 (11732394_at) / RFU HLA-DPB1 (11760878_x_at) / Fold change /veh HLA-DPB1 (11760878_x_at) / RFU SPINT1 (11716480_a_at) / Fold change /veh SPINT1 (11716480_a_at) / RFU GAP43 (11754022_s_at) / Fold change /veh GAP43 (11754022_s_at) / RFU A4GNT (11735810_at) / Fold change /veh A4GNT (11735810_at) / RFU PRB3 (11715151_x_at) / Fold change /veh PRB3 (11715151_x_at) / RFU TUBB4B (11761932_at) / Fold change /veh TUBB4B (11761932_at) / RFU CAPN14 (11732068_a_at) / Fold change /veh CAPN14 (11732068_a_at) / RFU TMCC2 (11721928_a_at) / Fold change /veh TMCC2 (11721928_a_at) / RFU IRGQ (11745062_a_at) / Fold change /veh IRGQ (11745062_a_at) / RFU FAM174B (11720279_a_at) / Fold change /veh FAM174B (11720279_a_at) / RFU TMPRSS4 (11748680_a_at) / Fold change /veh TMPRSS4 (11748680_a_at) / RFU FAM212B (11763350_a_at) / Fold change /veh FAM212B (11763350_a_at) / RFU PLEKHG5 (11743358_a_at) / Fold change /veh PLEKHG5 (11743358_a_at) / RFU ZSCAN30 (11745921_a_at) / Fold change /veh ZSCAN30 (11745921_a_at) / RFU CMKLR1 (11741424_a_at) / Fold change /veh CMKLR1 (11741424_a_at) / RFU LOC101060620 /// MAPK8IP1 (11723275_at) / Fold change /veh LOC101060620 /// MAPK8IP1 (11723275_at) / RFU SPTSSB (11747773_x_at) / Fold change /veh SPTSSB (11747773_x_at) / RFU PRSS12 (11739890_at) / Fold change /veh PRSS12 (11739890_at) / RFU BIN1 (11741810_x_at) / Fold change /veh BIN1 (11741810_x_at) / RFU WNT11 (11732464_a_at) / Fold change /veh WNT11 (11732464_a_at) / RFU C10orf10 (11716521_a_at) / Fold change /veh C10orf10 (11716521_a_at) / RFU C5orf56 (11738089_at) / Fold change /veh C5orf56 (11738089_at) / RFU CYB561 (11721691_x_at) / Fold change /veh CYB561 (11721691_x_at) / RFU ANKRD19P (11752326_a_at) / Fold change /veh ANKRD19P (11752326_a_at) / RFU OR2T12 /// OR2T33 /// OR2T8 (11738714_s_at) / Fold change /veh OR2T12 /// OR2T33 /// OR2T8 (11738714_s_at) / RFU VCAN (11748164_a_at) / Fold change /veh VCAN (11748164_a_at) / RFU JSRP1 (11732532_at) / Fold change /veh JSRP1 (11732532_at) / RFU KRTAP10-11 (11738290_x_at) / Fold change /veh KRTAP10-11 (11738290_x_at) / RFU MYO3A (11730013_a_at) / Fold change /veh MYO3A (11730013_a_at) / RFU EBF3 (11725865_a_at) / Fold change /veh EBF3 (11725865_a_at) / RFU CAMK2N1 (11719241_x_at) / Fold change /veh CAMK2N1 (11719241_x_at) / RFU C5orf56 (11738088_a_at) / Fold change /veh C5orf56 (11738088_a_at) / RFU OLFML3 (11715873_a_at) / Fold change /veh OLFML3 (11715873_a_at) / RFU LOC100653217 /// NTM (11731650_a_at) / Fold change /veh LOC100653217 /// NTM (11731650_a_at) / RFU MAPK11 (11762145_a_at) / Fold change /veh MAPK11 (11762145_a_at) / RFU FIZ1 (11724087_x_at) / Fold change /veh FIZ1 (11724087_x_at) / RFU OASL (11726364_x_at) / Fold change /veh OASL (11726364_x_at) / RFU SOX15 (11748057_x_at) / Fold change /veh SOX15 (11748057_x_at) / RFU CD79A (11719716_a_at) / Fold change /veh CD79A (11719716_a_at) / RFU HIST1H1D (11736915_at) / Fold change /veh HIST1H1D (11736915_at) / RFU CASKIN2 (11723855_a_at) / Fold change /veh CASKIN2 (11723855_a_at) / RFU LOC730098 (11760151_x_at) / Fold change /veh LOC730098 (11760151_x_at) / RFU OR4N2 (11742367_at) / Fold change /veh OR4N2 (11742367_at) / RFU PRRT2 (11749266_a_at) / Fold change /veh PRRT2 (11749266_a_at) / RFU SNX32 (11753110_a_at) / Fold change /veh SNX32 (11753110_a_at) / RFU CDHR5 (11726645_a_at) / Fold change /veh CDHR5 (11726645_a_at) / RFU RCAN1 (11760418_a_at) / Fold change /veh RCAN1 (11760418_a_at) / RFU FAM167A (11723789_a_at) / Fold change /veh FAM167A (11723789_a_at) / RFU FAM26E (11764081_at) / Fold change /veh FAM26E (11764081_at) / RFU ISYNA1 (11749810_s_at) / Fold change /veh ISYNA1 (11749810_s_at) / RFU ACY1 (11761880_at) / Fold change /veh ACY1 (11761880_at) / RFU 11764098_at / Fold change /veh 11764098_at / RFU SAMD14 (11745864_x_at) / Fold change /veh SAMD14 (11745864_x_at) / RFU NPB (11741838_a_at) / Fold change /veh NPB (11741838_a_at) / RFU TMPRSS6 (11731388_a_at) / Fold change /veh TMPRSS6 (11731388_a_at) / RFU KRTAP10-2 (11738614_at) / Fold change /veh KRTAP10-2 (11738614_at) / RFU ARHGAP8 /// PRR5-ARHGAP8 (11727945_x_at) / Fold change /veh ARHGAP8 /// PRR5-ARHGAP8 (11727945_x_at) / RFU KRTAP5-7 /// NADSYN1 (11734609_at) / Fold change /veh KRTAP5-7 /// NADSYN1 (11734609_at) / RFU RASL12 (11751679_a_at) / Fold change /veh RASL12 (11751679_a_at) / RFU CDKN2B (11736163_a_at) / Fold change /veh CDKN2B (11736163_a_at) / RFU PRF1 (11729649_at) / Fold change /veh PRF1 (11729649_at) / RFU, ZNF638 /// ZNF638-IT1 / Fold change vs veh, ZNF638 /// ZNF638-IT1 / RFU, PANK3 / Fold change vs veh, PANK3 / RFU, SH3YL1 / Fold change vs veh, SH3YL1 / RFU, ZEB2 / Fold change vs veh, ZEB2 / RFU, NRIP1 / Fold change vs veh, NRIP1 / RFU, PTTG1IP / Fold change vs veh, PTTG1IP / RFU, CAPN2 / Fold change vs veh, CAPN2 / RFU, MED14 / Fold change vs veh, MED14 / RFU, SNORA58 / Fold change vs veh, SNORA58 / RFU, C1orf63 / Fold change vs veh, C1orf63 / RFU, LRRFIP1 / Fold change vs veh, LRRFIP1 / RFU, NDUFAF7 / Fold change vs veh, NDUFAF7 / RFU, SLC12A2 / Fold change vs veh, SLC12A2 / RFU, IBTK / Fold change vs veh, IBTK / RFU, ESF1 / Fold change vs veh, ESF1 / Fold change vs veh, TMEM50B / RFU, TAOK1 / Fold change vs veh, TAOK1 / RFU, ACBD3 / Fold change vs veh, ACBD3 / RFU, TMA16 / Fold change vs veh, TMA16 / RFU, RWDD3 / Fold change vs veh, RWDD3 / RFU, BCAT1 / Fold change vs veh, BCAT1 / RFU, EDEM3 / Fold change vs veh, EDEM3 / RFU, TMEM33 / Fold change vs veh, TMEM33 / RFU, WDR75 / Fold change vs veh, WDR75 / RFU, AHCTF1 / Fold change vs veh, AHCTF1 / RFU, TFRC / Fold change vs veh, TFRC / RFU, ZDHHC17 / Fold change vs veh, ZDHHC17 / RFU, NOM1 / Fold change vs veh, NOM1 / RFU, ARL8B / Fold change vs veh, ARL8B / RFU, ZBTB11 / Fold change vs veh, ZBTB11 / RFU, TAMM41 / Fold change vs veh, TAMM41 / RFU, KIAA1704 /// LOC100996395 / Fold change vs veh, KIAA1704 /// LOC100996395 / RFU, ING1 / Fold change vs veh, ING1 / RFU, TRMT61B / Fold change vs veh, TRMT61B / RFU, FUBP3 / Fold change vs veh, FUBP3 / RFU, TP53 / Fold change vs veh, TP53 / RFU, TNKS2 / Fold change vs veh, TNKS2 / RFU, ZFP14 / Fold change vs veh, ZFP14 / RFU, ACTR2 / Fold change vs veh, ACTR2 / RFU, PPP3R1 / Fold change vs veh, PPP3R1 / RFU, PIK3R1 / Fold change vs veh, PIK3R1 / RFU, HNRNPA1 / Fold change vs veh, HNRNPA1 / RFU, RNF170 / Fold change vs veh, RNF170 / RFU, ZNF28 / Fold change vs veh, ZNF28 / RFU, RNGTT / Fold change vs veh, RNGTT / RFU, OGT / Fold change vs veh, OGT / RFU, BRD1 / Fold change vs veh, BRD1 / RFU, MARS / Fold change vs veh, MARS / RFU, ZNF655 / Fold change vs veh, ZNF655 / RFU, FAHD1 / Fold change vs veh, FAHD1 / RFU, BDP1 / Fold change vs veh, BDP1 / RFU, LRRCC1 / Fold change vs veh, LRRCC1 / RFU, ARID1A / Fold change vs veh, ARID1A / RFU, ZNF146 / Fold change vs veh, ZNF146 / RFU, ZNF330 / Fold change vs veh, ZNF330 / RFU, GPN3 / Fold change vs veh, GPN3 / RFU, C9orf123 / Fold change vs veh, C9orf123 / RFU, N4BP2L2 / Fold change vs veh, N4BP2L2 / RFU, ARFIP1 / Fold change vs veh, ARFIP1 / RFU, FAM179B / Fold change vs veh, FAM179B / RFU, BCL10 / Fold change vs veh, BCL10 / RFU, UHRF1BP1L / Fold change vs veh, UHRF1BP1L / RFU, BET1 / Fold change vs veh, BET1 / RFU, CNOT2 / Fold change vs veh, CNOT2 / RFU, ZNF268 / Fold change vs veh, ZNF268 / Fold change vs veh, ZNF507 / RFU, DGCR2 / Fold change vs veh, DGCR2 / RFU, WDSUB1 / Fold change vs veh, WDSUB1 / Fold change vs veh, HSP90B1 /// MIR3652 / RFU, ADSS / Fold change vs veh, ADSS / RFU, GK / Fold change vs veh, GK / RFU, ZNF148 / Fold change vs veh, ZNF148 / RFU, TAF9 / Fold change vs veh, TAF9 / RFU, SLC1A5 / Fold change vs veh, SLC1A5 / RFU, SLMO2 / Fold change vs veh, SLMO2 / RFU, ABCC4 / Fold change vs veh, ABCC4 / RFU, LOC101060439 /// RAP1B / Fold change vs veh, LOC101060439 /// RAP1B / RFU, RFX7 / Fold change vs veh, RFX7 / RFU, GTPBP10 / Fold change vs veh, GTPBP10 / RFU, CNEP1R1 / Fold change vs veh, CNEP1R1 / RFU, BIVM-ERCC5 /// ERCC5 / Fold change vs veh, BIVM-ERCC5 /// ERCC5 / RFU, ILF3 / Fold change vs veh, ILF3 / RFU 11762660_at / Fold change /veh 11762660_at / RFU VCAN (11757783_s_at) / Fold change /veh VCAN (11757783_s_at) / RFU DDX43 (11728927_at) / Fold change /veh DDX43 (11728927_at) / RFU KRT8 (11758188_x_at) / Fold change /veh KRT8 (11758188_x_at) / RFU NKD1 (11759106_at) / Fold change /veh NKD1 (11759106_at) / RFU SRD5A1 (11742802_a_at) / Fold change /veh SRD5A1 (11742802_a_at) / RFU TPSAB1 /// TPSB2 (11721975_s_at) / Fold change /veh TPSAB1 /// TPSB2 (11721975_s_at) / RFU GSTM3 (11746129_a_at) / Fold change /veh GSTM3 (11746129_a_at) / RFU IL23R (11737362_x_at) / Fold change /veh IL23R (11737362_x_at) / RFU TMEM51 (11727254_a_at) / Fold change /veh TMEM51 (11727254_a_at) / RFU PIWIL2 (11732686_x_at) / Fold change /veh PIWIL2 (11732686_x_at) / RFU ORM1 (11744905_x_at) / Fold change /veh ORM1 (11744905_x_at) / RFU CCDC152 (11743942_at) / Fold change /veh CCDC152 (11743942_at) / RFU ECM1 (11717891_a_at) / Fold change /veh ECM1 (11717891_a_at) / RFU IL23R (11748794_a_at) / Fold change /veh IL23R (11748794_a_at) / RFU TNFAIP8L3 (11732012_x_at) / Fold change /veh TNFAIP8L3 (11732012_x_at) / RFU MBOAT4 (11741988_at) / Fold change /veh MBOAT4 (11741988_at) / RFU 11764193_at / Fold change /veh 11764193_at / RFU TMEM53 (11763286_at) / Fold change /veh TMEM53 (11763286_at) / RFU MAGEB2 (11727129_at) / Fold change /veh MAGEB2 (11727129_at) / RFU TMEM200A (11744735_a_at) / Fold change /veh TMEM200A (11744735_a_at) / RFU CCDC152 (11751479_a_at) / Fold change /veh CCDC152 (11751479_a_at) / RFU FAM211A (11726209_a_at) / Fold change /veh FAM211A (11726209_a_at) / RFU RGS16 (11746705_a_at) / Fold change /veh RGS16 (11746705_a_at) / RFU VCAN (11755009_s_at) / Fold change /veh VCAN (11755009_s_at) / RFU RHOB (11743442_s_at) / Fold change /veh RHOB (11743442_s_at) / RFU RGS16 (11720943_a_at) / Fold change /veh RGS16 (11720943_a_at) / RFU RGS16 (11720944_at) / Fold change /veh RGS16 (11720944_at) / RFU, VPS4B / Fold change vs veh, VPS4B / RFU, CREB1 / Fold change vs veh, CREB1 / RFU, DNAJC13 / Fold change vs veh, DNAJC13 / RFU, GNAQ / Fold change vs veh, GNAQ / RFU, CDK5R1 / Fold change vs veh, CDK5R1 / RFU, ZRANB3 / Fold change vs veh, ZRANB3 / RFU, CUL4A / Fold change vs veh, CUL4A / RFU, CCNY / Fold change vs veh, CCNY / RFU, UFL1 / Fold change vs veh, UFL1 / RFU, COG3 / Fold change vs veh, COG3 / RFU, DIAPH2 / Fold change vs veh, DIAPH2 / RFU, SKA2 / Fold change vs veh, SKA2 / RFU, AFF3 / Fold change vs veh, AFF3 / RFU, LMF1 / Fold change vs veh, LMF1 / RFU, IPO11 / Fold change vs veh, IPO11 / RFU, DFFB / Fold change vs veh, DFFB / RFU, FOXP1 / Fold change vs veh, FOXP1 / RFU, CARD8 / Fold change vs veh, CARD8 / RFU, STRN3 / Fold change vs veh, STRN3 / RFU, ADK / Fold change vs veh, ADK / RFU, RASSF2 / Fold change vs veh, RASSF2 / RFU, WIPF1 / Fold change vs veh, WIPF1 / RFU, LARP1B / Fold change vs veh, LARP1B / RFU, RASA1 / Fold change vs veh, RASA1 / RFU, RB1 / Fold change vs veh, RB1 / RFU, PPFIA1 / Fold change vs veh, PPFIA1 / RFU, MAT2A / Fold change vs veh, MAT2A / RFU, CCT5 / Fold change vs veh, CCT5 / RFU, WDR92 / Fold change vs veh, WDR92 / RFU, CUX1 / Fold change vs veh, CUX1 / RFU, TTC7A / Fold change vs veh, TTC7A / RFU, TMEM135 / Fold change vs veh, TMEM135 / RFU, DEPTOR / Fold change vs veh, DEPTOR / RFU, CPM / Fold change vs veh, CPM / RFU, DNAJB6 / Fold change vs veh, DNAJB6 / RFU, CACNA2D3 / Fold change vs veh, CACNA2D3 / RFU, DTX4 / Fold change vs veh, DTX4 / RFU, TFCP2 / Fold change vs veh, TFCP2 / RFU, GMCL1 /// GMCL1P1 / Fold change vs veh, GMCL1 /// GMCL1P1 / RFU, AEBP2 / Fold change vs veh, AEBP2 / RFU, SNHG1 /// SNORD22 /// SNORD25 /// SNORD26 /// SNORD27 /// SNORD28 /// SNORD29 /// SNORD31 / Fold change vs veh, SNHG1 /// SNORD22 /// SNORD25 /// SNORD26 /// SNORD27 /// SNORD28 /// SNORD29 /// SNORD31 / Fold change (Aza/veh), C12orf56 (ProbeSet 11735607_a_at) / Fold change (ACY-1035/veh), C12orf56 (ProbeSet 11735607_a_at) / Fold change (Aza/veh), FGFR1OP (ProbeSet 11751329_s_at) / Fold change (ACY-1035/veh), FGFR1OP (ProbeSet 11751329_s_at) / Fold change (Aza/veh), VPS36 (ProbeSet 11739960_a_at) / Fold change (ACY-1035/veh), VPS36 (ProbeSet 11739960_a_at) / RFU SYPL1 (11715823_x_at) / Fold change /veh SYPL1 (11715823_x_at) / RFU IGFBP7 (11715501_s_at) / Fold change /veh IGFBP7 (11715501_s_at) / RFU REEP3 (11722064_at) / Fold change /veh REEP3 (11722064_at) / RFU IGLL1 (11728026_x_at) / Fold change /veh IGLL1 (11728026_x_at): dose or concentration left out as unconfirmed
Conditions: MV-4-11 cells, 48 hours

Nc1ccc(-c2cccs2)cc1NC(=O)c1ccc2c(c1)cc(C1CC1)n2CCN1CCOCC1 [ACY-1035]
RFU A4GNT (11735810_at): 16.59 RFU
